Experimental data published in patent US11142525B2 (Pfizer Inc., priority 2018, dated 2021).

Tests used:
[1] = biological target: human full-length recombinant HPK1 (Homo sapiens (Human), UniProt Q92918); experiment: HPK1 biochemical enzyme assay, microfluidic mobility shift assay (MSA); conditions: HPK1 mobility shift assay; read-out: HPK1 Enzyme Assay_Ki
[2] = system: phospho-SLP-76 (Ser376) in Jurkat cells; experiment: Phospho-SLP-76 (Ser376) Homogeneous Time Resolved Fluorescence (HTRF) assay in Jurkat cells; type: cell-based; conditions: Homo sapiens, Phospho-SLP-76 (Ser376) HTRF, anti-CD3 stimulation, read-out: SLP76 Assay_IC50
Procedure, shortened: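 Jurkat cells pre-treated 30 min with compounds (10 μM to 0.1 nM, 11-point, 0.1% DMSO), then stimulated with 200 μg/mL F(ab)2-complexed anti-CD3 (UCHT1) for 15 min at 37 °C. Lysate phospho-SLP-76 detected by HTRF after overnight antibody incubation; IC50 from four-parameter fit.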

Chain of human full-length recombinant HPK1 (Q92918 whole entry): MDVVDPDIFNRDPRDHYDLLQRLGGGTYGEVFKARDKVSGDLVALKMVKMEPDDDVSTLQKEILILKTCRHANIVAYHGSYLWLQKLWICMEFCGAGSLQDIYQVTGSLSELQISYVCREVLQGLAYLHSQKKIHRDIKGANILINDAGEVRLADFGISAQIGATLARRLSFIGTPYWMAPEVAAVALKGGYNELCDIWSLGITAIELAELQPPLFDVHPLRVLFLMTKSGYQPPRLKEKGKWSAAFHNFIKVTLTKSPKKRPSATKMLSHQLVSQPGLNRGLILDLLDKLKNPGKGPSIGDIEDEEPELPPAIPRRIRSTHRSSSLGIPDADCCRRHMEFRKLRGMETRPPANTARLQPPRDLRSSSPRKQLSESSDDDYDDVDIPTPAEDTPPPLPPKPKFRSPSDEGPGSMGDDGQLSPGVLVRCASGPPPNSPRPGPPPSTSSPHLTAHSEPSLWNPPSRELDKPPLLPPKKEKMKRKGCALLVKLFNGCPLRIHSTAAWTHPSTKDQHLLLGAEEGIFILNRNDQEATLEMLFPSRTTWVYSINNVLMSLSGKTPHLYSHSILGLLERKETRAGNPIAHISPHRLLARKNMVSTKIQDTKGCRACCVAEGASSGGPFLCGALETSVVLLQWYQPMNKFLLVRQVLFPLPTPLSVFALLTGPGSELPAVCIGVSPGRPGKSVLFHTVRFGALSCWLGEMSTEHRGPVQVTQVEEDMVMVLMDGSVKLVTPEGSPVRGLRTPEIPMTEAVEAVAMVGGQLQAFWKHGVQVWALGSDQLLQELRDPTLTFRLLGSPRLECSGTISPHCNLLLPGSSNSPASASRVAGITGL

Ki [1] [nM] | IC50 [2] [nM] | SMILES
0.23 | 85 | CCn1c(C)nnc1-c1cccc(N2Cc3c(cc(N4CCC[C@@H]4C)nc3CN)C2=O)n1 [Example 157]
0.38 | 83 | CCn1c(C)nnc1-c1cccc(N2Cc3c(cc(N(C)C(C)C)nc3CN)C2=O)n1 [Example 158]
0.48 | 272 | CCN(C)c1cc2c(c(CN)n1)CN(c1cccc(-c3nnc(C)n3C(C)C)n1)C2=O [Example 160]
0.68 | 217 | CCCn1c(C)nnc1-c1cccc(N2Cc3c(cc(N(C)CC)nc3CN)C2=O)n1 [Example 161]
0.76 | 136 | Cc1nnc(-c2cccc(N3Cc4c(cc(N5CCC[C@@H]5C)nc4CN)C3=O)n2)n1C(C)C [Example 162]
0.88 | 196 | CCN(CC)c1cc2c(c(CN)n1)CN(c1cccc(-c3nnc(C)n3CC)n1)C2=O [Example 163]
0.28 | 114 | Cc1nnc(-c2cccc(N3Cc4c(cc(N(C)C(C)C)nc4CN)C3=O)n2)n1C(C)C [Example 165]
0.5 | 104 | CCC(CC)n1cnnc1-c1cccc(N2Cc3c(cc(N(CC)C(C)C)nc3CN)C2=O)n1 [Example 166]
0.7 | 391 | CCN(c1cc2c(c(CN)n1)CN(c1cccc(-c3nnc(C)n3CC)n1)C2=O)C(C)C [Example 167]
0.76 | 300 | CCn1c(C)nnc1-c1cccc(N2Cc3c(cc(N4[C@H](C)CC[C@H]4C)nc3CN)C2=O)n1 [Example 168]
0.95 | 179 | Cc1nnc(-c2cccc(N3Cc4c(cc(N5[C@H](C)CC[C@H]5C)nc4CN)C3=O)n2)n1C(C)C [Example 169]
0.36 | 264 | CCCn1c(C)nnc1-c1cccc(N2Cc3c(cc(N(CC)CC)nc3CN)C2=O)n1 [Example 170]
0.34 | 180 | CCN(C)c1cc2c(c(CN)n1)CN(c1cccc(-c3nnc(C)n3CC)n1)C2=O [Example 171]
0.55 | 85 | CCCn1c(C)nnc1-c1cccc(N2Cc3c(cc(N(C)C(C)C)nc3CN)C2=O)n1 [Example 172]
0.06 | 43 | CC[C@H](C)n1cnnc1-c1cccc(N2Cc3c(cc(N(C)CC)nc3CNC)C2=O)n1 [Example 173]
0.37 | 207 | CN(C)c1cc2c(c(CN)n1)CN(c1cccc(N3C(=O)OC[C@@H]3CF)n1)C2=O [Example 174]
0.94 | 185 | CCCn1c(CC)nnc1-c1cccc(N2Cc3c(cc(N4CCC[C@H]4C)nc3CNC)C2=O)n1 [Example 175]
0.26 | 152 | CNCc1nc(N(C)C)cc2c1CN(c1cccc(-c3nncn3CC(C)C)n1)C2=O [Example 177]
0.79 | 136 | CCc1nnc(-c2cccc(N3Cc4c(cc(N5CCC[C@H]5C)nc4CN)C3=O)n2)n1CC [Example 185]
